# Source: paper PMC7016952, “Characterization of the Menin-MLL Interaction as Therapeutic Cancer Target” (Cancers, 2020)
# Key:
# [1] = test system: MEIS1, MNDA and CD11b expression in MV4;11 and MOLM-13 cells; assay: qRT-PCR of hematopoietic differentiation genes; assay type: cell-based, human; details: four days of treatment, in comparison to MI-503
# Description: (§1) Total RNA was isolated using RNeasy-Plus Mini kit (Qiagen, Hilden, Germany). RNA (1 μg) was reverse transcribed using SuperScript III First-Strand Synthesis SuperMix (Life Technologies) and the generated cDNA was analyzed with commercial primers (Supplementary Materials Table S1) by qRT-PCR using TaqMan Fast Advanced Master Mix (Life Technologies). For the RNA-seq study, ZR-75-1, BT474, PANC-1, MiaPaCa-2, 22RV1, JMSU-1, DLD-1, SW1463, LoVo and G401 cells were treated with 5 µM BAY-155 or DMSO for 48 h prior to RNA extraction. After 48 h of 5 µM BAY-155 or DMSO treatment, MCF7, VCaP and LNCaP cells were stimulated for further 12 h with 0.1 nM of E2 (ß-Estradiol) or 1 nM R1881, respectively. MCF7, VCaP and LNCaP cells were cultured in starvation medium (containing 5 µM BAY-155 or DMSO) 6 h before stimulation. RNA was isolated using RNeasy-Plus Mini kit (Qiagen). The purified RNA was used for library preparation (Illumina, San Diego, CA, USA. TruSeq Stranded mRNA Kit) and the generated libraries were sequenced (Illumina, HiSeq2500 HTv4, SR, dual-indexing, 50 cycles).
# [2] = test system: T1, menin protein levels in VCaP cells; assay: Western blot of menin protein level; assay type: cell-based, human; details: Western blot
# T1 construct: endogenous in cells; host or cells: VCaP
# [3] = test system: 401 cancer cell lines derived from 28 tissues of origin; assay: Cell line proliferation panel (OmniScreen, 401 cancer cell lines); assay type: cell-based
# Description: The characterization of proliferation effects in 401 cancer cell lines was performed on the OmniScreen™ platform (CrownBio). Briefly, cells were seeded at the appropriate density for a five-day growth period and treated with BAY-155 (10 µM maximal concentration with 3.16-fold serial dilutions with 9 dose levels) or left untreated as control. For determination of viability the CellTiter-Glo® Luminescent Cell Viability Assay (Promega, Madison, WI, USA) was used. For absolute IC50 determination, a dose-response curve was fitted using a nonlinear regression model with a sigmoidal dose-response using GraphPad Prism 5.0. The surviving rate (%) = (LumTest-LumMedium control)/(LumNon-treated-LumMedium control) × 100%.
# MCF7 cells = assay: RNA-seq after E2 stimulation, MCF7; assay type: cell-based, human
# Description: as §1
# RNA-seq reads were aligned to hg38 using STAR aligner. Protein-coding genes with more than 10 reads in more than three samples were used for the analysis (total samples N = 86; genes N = 13,003). DESeq2 was used to find genes differentially expressed upon treatment by the menin inhibitor in each cell line compared to DMSO or hormonal treatment (for MCF-7, LNCaP and VCaP cell lines). […] GSEA analysis was run on the pre-ranked list based on logFC in prostate (VCaP and LNCaP) and breast (MCF7) cell lines. Data are available at GEO under accession number GSE136272.
# MOLM-13 xenograft = MOLM-13 xenograft efficacy; assay type: in vivo, mice; details: p.o.
# Description: (§2) Tumor cells were injected subcutaneously into the flanks of 6- to 9-week old animals. Efficacy studies in xenograft models were performed at Bayer or EPO GmbH (Berlin-Buch, Germany) using NMRI nu/nu, SCID, BALB/c Nude female mice or SCID male mice (VCaP tumors). All animal studies were conducted in accordance with the animal welfare laws and were approved by the State Office for Health and Social Affairs Berlin (LAGeSo). Experiments were run under the animal license B3600a0007. Compound treatment started at a predefined tumor size or burden or at a predefined day after cell inoculation. BAY-155 was administered orally (p.o.) at various doses and regorafenib, tamoxifen and enzalutamide (resuspended in PEG400/H2O 6/4 or PEG400/EtOH 9/1) were used as control treatment for RKO, MCF7 and VCaP xenografts, respectively. Subcutaneous tumor volumes were determined by caliper measurement.
# MCF7 xenograft = MCF7 xenograft efficacy; assay type: in vivo, mice
# Description: as §2
# VCaP xenograft = VCaP xenograft efficacy; assay type: in vivo, mice
# Description: as §2
# [4] = test system: AR signaling pathway genes in VCaP tumor samples; assay: Ex vivo gene expression in VCaP xenografts; parameters: species or system mice; details: 52 days of treatment
# Description: as §1
# Tumors were harvested, dissociated and total RNA was extracted using the TissueLyser (Qiagen, Hilden, Germany) together with RNeasy-Plus Mini kit according to the manufacturer protocol.
# [5] = cited from earlier work
# [6] = cited from earlier work; remark: listed apart in the source
# CYP 2D6 = CYP 2D6 (Homo sapiens, UniProt P10635); details: cited from earlier work
# CYP 2C9 = CYP 2C9 (Homo sapiens, UniProt P11712); details: cited from earlier work
# CYP 1A2 = CYP 1A2 (Homo sapiens, UniProt P05177); details: cited from earlier work
# CYP enzymes = details: cited from earlier work
# Sequence of CYP 2D6 (P10635 whole entry): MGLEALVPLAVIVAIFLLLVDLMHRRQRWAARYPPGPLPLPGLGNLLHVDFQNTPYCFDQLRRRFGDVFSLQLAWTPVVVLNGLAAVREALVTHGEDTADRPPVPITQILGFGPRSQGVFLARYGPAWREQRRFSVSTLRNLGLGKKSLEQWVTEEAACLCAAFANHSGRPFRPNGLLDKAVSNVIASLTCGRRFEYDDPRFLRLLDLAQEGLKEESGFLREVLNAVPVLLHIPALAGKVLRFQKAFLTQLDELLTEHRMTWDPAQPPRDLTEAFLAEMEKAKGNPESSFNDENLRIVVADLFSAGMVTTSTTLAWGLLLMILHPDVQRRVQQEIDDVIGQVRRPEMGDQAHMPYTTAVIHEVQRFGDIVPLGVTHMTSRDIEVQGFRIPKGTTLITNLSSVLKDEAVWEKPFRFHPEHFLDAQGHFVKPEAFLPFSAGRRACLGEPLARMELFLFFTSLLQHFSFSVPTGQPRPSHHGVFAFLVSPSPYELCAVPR
# Sequence of CYP 2C9 (P11712 whole entry): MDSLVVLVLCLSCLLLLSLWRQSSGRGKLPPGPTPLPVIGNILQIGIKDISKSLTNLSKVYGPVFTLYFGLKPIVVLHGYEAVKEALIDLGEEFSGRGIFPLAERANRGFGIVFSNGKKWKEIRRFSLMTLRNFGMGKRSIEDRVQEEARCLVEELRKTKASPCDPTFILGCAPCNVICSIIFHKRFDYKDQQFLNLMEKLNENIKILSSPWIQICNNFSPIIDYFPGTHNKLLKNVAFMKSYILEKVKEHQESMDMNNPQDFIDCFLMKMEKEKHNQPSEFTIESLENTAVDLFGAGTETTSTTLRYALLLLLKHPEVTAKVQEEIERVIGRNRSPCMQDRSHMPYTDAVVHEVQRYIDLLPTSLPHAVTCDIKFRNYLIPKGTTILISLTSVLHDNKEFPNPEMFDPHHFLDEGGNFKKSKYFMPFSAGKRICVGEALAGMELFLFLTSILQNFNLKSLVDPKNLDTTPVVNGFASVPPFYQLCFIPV
# Sequence of CYP 1A2 (P05177 whole entry): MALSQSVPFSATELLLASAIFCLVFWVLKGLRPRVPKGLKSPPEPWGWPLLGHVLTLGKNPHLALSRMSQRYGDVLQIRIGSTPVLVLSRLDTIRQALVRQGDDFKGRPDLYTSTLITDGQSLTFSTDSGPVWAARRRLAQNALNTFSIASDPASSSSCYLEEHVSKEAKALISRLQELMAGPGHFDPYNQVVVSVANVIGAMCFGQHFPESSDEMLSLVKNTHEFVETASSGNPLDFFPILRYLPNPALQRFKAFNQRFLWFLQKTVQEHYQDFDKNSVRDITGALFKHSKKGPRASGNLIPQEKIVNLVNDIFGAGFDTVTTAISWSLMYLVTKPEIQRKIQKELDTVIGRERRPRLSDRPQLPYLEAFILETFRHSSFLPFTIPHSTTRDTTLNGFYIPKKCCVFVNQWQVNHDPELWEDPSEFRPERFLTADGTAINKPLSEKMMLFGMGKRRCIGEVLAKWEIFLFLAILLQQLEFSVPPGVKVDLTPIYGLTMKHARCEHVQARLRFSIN
structure (smiles),measurement,setting,value
Cc1c(CN2CCC3(CC2)CN(c2ncnc4sc(CC(F)(F)F)cc24)C3)ccc2c1cc(C#N)n2CC(N)=O [BAY-155],CD11b and MNDA gene expression,[1],up-regulation
same,MEIS1 gene expression,[1],stronger expression down-regulation
same,menin protein levels,[2],reduce menin protein levels in a time- and concentration-dependent manner
same,"proliferation of cancer models originating from breast, prostate or bone",[3],not affected
same,"sensitivity of all tested MLL-AF4, MLL-AF9 and MLL-TD leukemia cell lines",[3],sensitive
same,IC50,"[3]; 120 h, read-out: IC50 in the vast majority of tested cell line models",> 10 µM
same,sensitivity of KYSE-150 and RKO cells in the in vitro screen,[3]; IC50 in similar range to MV4;11 and MOLM-13,highly sensitive
same,share of liver-derived models with reduced proliferation,"[3]; n = 33, IC50 below 5 µM taken as significant",30%
same,share of blood cell-derived models with reduced proliferation,"[3]; n = 73, IC50 below 5 µM taken as significant",26%
same,GSEA of estradiol (E2) up- and down-regulated gene sets,MCF7 cells; MCF7,slight reverse regulation
same,E2 down-regulated genes significantly changed,"MCF7 cells; MCF7, 5 µM, E2",13 genes
same,E2 up-regulated genes significantly changed,"MCF7 cells; MCF7, 5 µM, E2",26 genes
same,tumor volume,MOLM-13 xenograft,dose-dependent inhibition of tumor volume
same,tumor weight,MOLM-13 xenograft,significant reduction of tumor weight
same,tumor volume and tumor weight,MCF7 xenograft,no significant effects
same,tumor volume and tumor weight,VCaP xenograft,no significant effects
same,FKBP5 and TMPRSS2 expression ex vivo,[4],no significant changes
same,in vivo CL blood Rat,[5],18.3 mL/min/kg
same,in vivo F Rat,[5],15.3%
same,Caco2 permeability Papp(A-B),"[6]; Caco-2, pH 7.2",2.64 ×10⁻⁶ cm/s
same,Caco2 permeability efflux ratio,[6]; Caco-2,6.4
same,IC50,CYP 2D6,> 20 µM
same,IC50,CYP 2C9,> 20 µM
same,IC50,CYP 1A2,> 20 µM
same,inhibition of CYP enzymes (in words),CYP enzymes,no inhibition
